Assay results reported in the supplement of paper PMC10307832.

What was measured:
Experiment in all cases: relative viability (nuclei count vs DMSO), 5 days (fraction); higher = more cells survive
[1] = compound: NC1(c2ccc(-c3nc4ccn5c(=O)[nH]nc5c4cc3-c3ccccc3)cc2)CCC1 [MK-2206] + Nc1nc2[nH]cc(CCc3ccc(C(=O)N[C@@H](CCC(=O)O)C(=O)O)cc3)c2c(=O)[nH]1 [Pemetrexed] (partner 0.2 µM)
Method in brief: (§1)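 Relative viability was taken as the ratio of nuclei in treated wells to nuclei in vehicle wells. Lung cancer cell lines in 1536-well plates received compounds by pin tool one day after seeding, either one drug alone or a fixed anchor-drug dose plus five library-drug doses (not always all listed) in √10 steps. Nuclei were counted on 4× images after 5 days of treatment, and values are medians of duplicate plates.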

[2] = compound: CS(=O)(=O)N1CCN(Cc2cc3nc(-c4cccc5[nH]ncc45)nc(N4CCOCC4)c3s2)CC1 [Pictilisib] + NC(=O)Nc1cc(-c2cccc(F)c2)sc1C(=O)N[C@H]1CCCNC1 [AZD7762] (partner 0.2 µM)
Method in brief: as §1

[3] = compound: CS(=O)(=O)N1CCN(Cc2cc3nc(-c4cccc5[nH]ncc45)nc(N4CCOCC4)c3s2)CC1 [Pictilisib] + N=C(N)NC(=N)NCCc1ccccc1 [Phenformin] (partner 250 µM)
Method in brief: as §1

[4] = compound: CS(=O)(=O)N1CCN(Cc2cc3nc(-c4cccc5[nH]ncc45)nc(N4CCOCC4)c3s2)CC1 [Pictilisib] + C[C@@H](Oc1cc(-c2cnn(C3CCNCC3)c2)cnc1N)c1c(Cl)ccc(F)c1Cl [Crizotinib] (partner 1 µM)
Method in brief: as §1

[5] = compound: NC1(c2ccc(-c3nc4ccn5c(=O)[nH]nc5c4cc3-c3ccccc3)cc2)CCC1 [MK-2206] + CS(=O)(=O)CCNCc1ccc(-c2ccc3ncnc(Nc4ccc(OCc5cccc(F)c5)c(Cl)c4)c3c2)o1 [Lapatinib] (partner 2 µM)
Method in brief: as §1

Cell Line | relative viability ([1]; first compound 0.01 µM) | relative viability ([1]; first compound 0.03162 µM) | relative viability ([1]; first compound 0.3162 µM) | relative viability ([1]; first compound 1 µM) | relative viability ([2]; first compound 0.02 µM) | relative viability ([2]; first compound 0.06325 µM) | relative viability ([2]; first compound 0.6325 µM) | relative viability ([2]; first compound 2 µM) | relative viability ([3]; first compound 0.02 µM) | relative viability ([3]; first compound 0.06325 µM) | relative viability ([3]; first compound 0.6325 µM) | relative viability ([3]; first compound 2 µM) | relative viability ([4]; first compound 0.02 µM) | relative viability ([4]; first compound 0.06325 µM) | relative viability ([4]; first compound 0.6325 µM) | relative viability ([4]; first compound 2 µM) | relative viability ([5]; first compound 0.01 µM) | relative viability ([5]; first compound 0.03162 µM) | relative viability ([5]; first compound 0.3162 µM) | relative viability ([5]; first compound 1 µM)
LK-2 | 0.265 | 0.309 | 0.246 | 0.252 | 0.357 | 0.392 | 0.147 | 0.0792 | 0.468 | 0.379 | 0.176 | 0.143 | 0.251 | 0.23 | 0.239 | 0.23 | 1.03 | 1.05 | 0.863 | 0.854
HCC-827 | 0.272 | 0.242 | 0.268 | 0.274 | 0.17 | 0.153 | 0.154 | 0.122 | 0.423 | 0.419 | 0.376 | 0.306 | 0.901 | 0.991 | 0.921 | 0.548 | 0.173 | 0.193 | 0.205 | 0.179
EPLC-272H | 0.329 | 0.319 | 0.3 | 0.354 | 0.25 | 0.279 | 0.173 | 0.14 | 0.284 | 0.323 | 0.23 | 0.197 | 0.995 | 0.993 | 0.702 | 0.72 | 1.06 | 0.916 |  | 1.33
NCI-H358 | 0.169 | 0.154 | 0.186 | 0.162 | 0.542 | 0.521 | 0.335 | 0.267 | 0.348 | 0.38 | 0.207 | 0.151 | 0.658 | 0.455 | 0.607 | 0.408 | 0.47 | 0.41 | 0.394 | 0.376
NCI-H2085 | 0.866 | 1.02 | 0.953 | 0.841 | 0.963 | 1.06 | 0.354 | 0.287 | 0.725 | 0.688 | 0.387 | 0.291 | 0.887 | 0.994 | 0.747 | 0.394 | 0.773 | 0.81 | 0.605 | 0.467
NCI-H2087 | 0.623 | 0.624 | 0.667 | 0.684 | 1.39 | 1.29 | 1.29 | 0.952 | 0.483 | 0.439 | 0.468 | 0.28 | 0.912 | 0.828 | 1.03 | 0.985 | 1.03 | 1.41 | 1.07 | 0.805
NCI-H322M | 0.64 | 0.634 | 0.666 | 0.679 | 0.55 | 0.607 | 0.495 | 0.339 | 0.861 | 0.773 | 0.566 | 0.418 | 0.834 | 0.936 | 0.878 | 0.834 | 0.599 | 0.634 | 0.604 | 0.68
NCI-H1734 | 0.393 | 0.391 | 0.401 | 0.391 | 0.559 | 0.537 | 0.357 | 0.192 | 0.427 | 0.362 | 0.271 | 0.197 | 0.739 | 0.648 | 0.43 | 0.296 | 0.758 | 1.05 | 0.789 | 0.869
EKVX | 0.372 | 0.386 | 0.393 | 0.356 | 0.732 | 0.703 | 0.41 | 0.315 | 0.228 | 0.256 | 0.211 | 0.178 | 0.898 | 1.15 | 0.801 | 0.493 | 0.2 | 0.207 | 0.17 | 0.179
NCI-H596 | 0.45 | 0.567 | 0.502 | 0.498 | 1.01 | 1.14 | 0.564 | 0.44 | 0.697 | 0.697 | 0.375 | 0.305 | 0.91 | 1.05 | 0.631 | 0.354 | 1.12 | 1.11 | 0.912 | 0.684
NCI-H1975 | 0.314 | 0.286 | 0.331 | 0.262 | 0.816 | 0.62 | 0.466 | 0.225 | 0.431 | 0.387 | 0.25 | 0.177 | 0.915 | 0.9 | 0.713 | 0.307 | 0.837 | 0.996 | 0.781 | 0.534
NCI-H2170 | 0.246 | 0.264 | 0.286 | 0.24 | 0.879 | 0.917 | 0.645 | 0.422 | 0.394 | 0.444 | 0.424 | 0.365 | 1.19 | 1.09 | 0.973 | 0.617 | 0.312 | 0.276 | 0.263 | 0.258
NCI-H1666 | 0.793 | 0.774 | 1.03 | 0.787 | 0.814 | 0.763 | 0.804 | 0.532 | 0.576 | 0.615 | 0.522 | 0.462 | 1.07 | 1.05 | 0.815 | 0.491 | 0.633 | 0.577 | 0.354 | 0.386
PC-3 [JPC-3] | 1.12 | 1.24 | 1.23 | 1.07 | 0.812 | 0.844 | 0.491 | 0.324 | 0.493 | 0.539 | 0.487 | 0.405 | 0.983 | 0.969 | 1.03 | 0.905 | 0.469 | 0.457 | 0.437 | 0.441
NCI-H1755 | 0.405 | 0.404 | 0.353 | 0.374 | 0.452 | 0.387 | 0.354 | 0.298 | 0.654 | 0.594 | 0.401 | 0.357 | 0.848 | 0.829 | 0.827 | 0.546 | 1.02 | 1.05 | 0.965 | 0.962
RERF-LC-KJ | 0.489 | 0.471 | 0.532 | 0.476 | 0.999 | 0.916 | 0.855 | 0.55 | 0.409 | 0.35 | 0.343 | 0.307 | 0.845 | 0.875 | 0.816 | 0.635 | 0.871 | 0.902 | 0.723 | 0.787
NCI-H647 | 0.201 | 0.165 | 0.144 | 0.134 | 0.474 | 0.577 | 0.283 | 0.201 | 0.667 | 0.698 | 0.291 | 0.227 | 1.16 | 1.18 | 0.884 | 0.524 | 1.01 | 1.15 | 1.06 | 0.521
BEN | 0.736 | 0.767 | 0.679 | 0.697 | 0.809 | 0.808 | 0.745 | 0.447 | 0.315 | 0.286 | 0.286 | 0.248 | 0.8 | 1.07 | 0.817 | 0.58 | 0.679 | 0.658 | 0.697 | 0.657
201T | 0.318 | 0.313 | 0.342 | 0.333 | 0.637 | 0.571 | 0.41 | 0.448 | 0.476 | 0.443 | 0.409 | 0.3 | 1.04 | 1.04 | 1.03 | 0.788 | 0.988 | 1.12 | 1.02 | 1.12
LC-2-ad | 0.282 | 0.254 | 0.28 | 0.25 | 0.814 | 0.799 | 0.646 | 0.407 | 0.593 | 0.636 | 0.464 | 0.323 | 0.443 | 0.52 | 0.392 | 0.359 | 0.944 | 1.08 | 1.03 | 0.542
LCLC-97TM1 | 0.186 | 0.138 | 0.146 | 0.189 | 0.34 | 0.469 | 0.258 | 0.133 | 0.435 | 0.415 | 0.398 | 0.194 | 0.236 | 0.277 | 0.317 | 0.159 | 1.67 | 1.35 | 0.697 | 0.52
NCI-H1915 | 0.487 | 0.42 | 0.473 | 0.494 | 0.681 | 0.716 | 0.579 | 0.525 | 0.392 | 0.367 | 0.365 | 0.361 | 0.855 | 1 | 0.889 | 0.898 | 0.954 | 0.984 | 0.978 | 1.02
NCI-H3122 | 0.202 | 0.197 | 0.203 | 0.193 | 0.961 | 1.07 | 0.871 | 0.348 | 0.402 | 0.4 | 0.394 | 0.284 | 0.258 | 0.253 | 0.194 | 0.186 | 1.01 | 1.07 | 1.06 | 1.1
NCI-H1993 | 0.727 | 0.555 | 0.516 | 0.477 | 0.79 | 0.722 | 0.459 | 0.442 | 0.527 | 0.504 | 0.626 | 0.573 | 0.766 | 0.691 | 0.726 | 0.638 | 0.869 | 0.83 | 0.749 | 0.758
NCI-H2405 | 1.01 | 1.07 | 1.02 | 0.978 | 0.784 | 0.629 | 0.427 | 0.264 | 0.4 | 0.386 | 0.364 | 0.23 | 0.884 | 0.854 | 0.745 | 0.558 | 1.07 | 1.19 | 0.809 | 0.859
